Tested on: CHO cell line (GAA LEC clone R3.3) expressing rh-GAA
Assay: Phosphorylation efficiency of rh-GAA from cultures containing mannosidase inhibitors ([32P] incorporation by GlcNAc phosphotransferase)
Assay type: cell-based, Chinese Hamster
Settings: for [^32P] Phosphate Incorporation (cpm): conditioned media with 6 μg GAA; for effect on the phosphorylation reaction of rh-GAA: increasing amounts of inhibitor alone, versus GAA cultured without mannosidase inhibitors (FIG. 1)
Procedure: To determine whether mannosidase inhibitors can increase phosphorylation efficiency of recombinant human acid alpha glucosidase (rh-GAA), a CHO cell line (GAA LEC clone R3.3) expressing rh-GAA was grown in various conditions that contained different amounts of the following mannosidase the inhibitors: Kifunensin; Deoxymannojirimycin (DMJ); or combinations of both inhibitors. Conditioned media from each inhibitor condition containing 6 μg of GAA (based on GAA activity assay) was then incubated with purified bovine GlcNAc phosphotransferase (Pt'ase) and [^32P]UDP-GlcNAc. Subsequently, each phosphorylation reaction was loaded onto a concanavalin A-sepharose column to capture glycoproteins, e.g., rh-GAA. The concanavalin A-sepharose was washed and the resin was counted in a liquid scintillation counter to measure the ^32P incorporation, i.e., the extent of phosphorylation on rh-GAA. The results are summarized in Table 1 below and FIGS. 1 and 2.

Row | Structure (SMILES) | [^32P] Phosphate Incorporation (cpm) (0.5 mM inhibitor in culture) | [^32P] Phosphate Incorporation (cpm) (1.0 mM inhibitor in culture) | [^32P] Phosphate Incorporation (cpm) (1.75 mM inhibitor in culture) | [^32P] Phosphate Incorporation (cpm) (2.5 mM inhibitor in culture) | [^32P] Phosphate Incorporation (cpm) (5.0 mM inhibitor in culture) | effect on the phosphorylation reaction of rh-GAA | [^32P] Phosphate Incorporation (cpm) (0.5 μg/ml inhibitor in culture) | [^32P] Phosphate Incorporation (cpm) (1.0 μg/ml inhibitor in culture) | [^32P] Phosphate Incorporation (cpm) (2.5 μg/ml inhibitor in culture) | [^32P] Phosphate Incorporation (cpm) (5.0 μg/ml inhibitor in culture) | [^32P] Phosphate Incorporation (cpm) (10.0 μg/ml inhibitor in culture)
1 | OC[C@H]1NC[C@@H](O)[C@@H](O)[C@@H]1O [DMJ only, deoxymannojirimycin] | 3656 cpm | 4500 cpm | 4450 cpm | 7258 cpm | 6413 cpm | greatly enhance |  |  |  |  | 
2 | O=C1N[C@@H]2[C@@H](O)[C@@H](O)[C@H](O)[C@@H](CO)N2C1=O [Kifunensin only, kifunensine] |  |  |  |  |  | greatly enhance | 6675 cpm | 8585 cpm | 7147 cpm | 6717 cpm | 7116 cpm

Source: patent US20030124653A1, “Method of producing glycoproteins having reduced complex carbohydrates in mammalian cells” (NOVAZYME PHARMACEUTICALS, INC., priority 2001, published 2003)
